According to patent publication US20140329863A1 (priority 2011, published 2014):
Converted amounts (≈) assume the structure as drawn. Read-outs that look alike come from different tables or passages of the source.

How the values were obtained:
[1] = Single-dose pharmacokinetic studies in female FVB mice (PO, IV, IP); format: in vivo, mouse; conditions: single 40 mg/kg oral dose
Experimental: For in-vivo pharmacokinetic studies, compounds were dissolved in a formulation containing 20% propylene glycol, 5% ethanol, 5% labrosol, and 70% polyethylene glycol 400 (PEG400) and administered by oral gavage to female FVB mice weighing ˜25 g. At specified time points after dosing (0.25, 0.5, 1, 2, 4, 6, and 24 h), 2 animals were euthanized by CO2, and ˜1 mL blood (by cardiac puncture) and brain samples were collected. The heparinized blood samples were centrifuged to obtain plasma, which was stored at −80° C. until analysis. Brain samples were weighed, diluted […] with water, and then homogenized using a Precellys 24 tissue homogenizer. Brain homogenates (20% wt/vol) were stored at −80° C. until analysis. Pharmacokinetic protocols involving animals were all reviewed and approved by the UCSF institutional animal care and use committee (IACUC).
(§1) Plasma and brain homogenate samples were extracted using a protein-precipitation method and analyzed by specific LC/MS/MS methods developed for each compound dosed in vivo. The analytical method accuracy and precision were monitored by analyzing quality control (QC) samples that were prepared and treated using the same methods as calibration standards for the plasma or brain homogenate samples.
The data were used to calculate the area under the concentration-time curve (AUClast) by noncompartmental analysis with sparse sampling performed using Phoenix WinNonlin 6.1 software (Pharsight, Mountain View, Calif.).
Pharmacokinetic protocols employing mice were reviewed and approved by the UCSF Institutional Animal Care and Use Committee (IACUC). Female FVB mice, weighing approximately 25 g, were used for all in vivo pharmacokinetic studies. Mice were housed with free access to food and water, and were maintained on 12-h light/dark cycles for 1 week before dosing studies were initiated.
For the single-dose of 40 mg/kg, compounds were dissolved in a formulation containing 5% propylene glycol, […] α-tocopheryl polyethylene glycol 1000 succinate (TPGS) and 70% polyethylene glycol 400 (PEG400), and administered by oral gavage. Two animals per time point were used. At specified time points after dosing (0.5, 1, 2, 4, 6, and 24 h), animals were euthanized by CO2, and blood for plasma (by cardiac puncture) and brain samples were collected. The heparinized blood samples were centrifuged to obtain plasma. Brain samples were weighed, diluted 10-fold with water, and then homogenized using a Precellys 24 tissue homogenizer. The brain and plasma samples were flash-frozen on dry ice and then stored at −80° C. until analysis. For the single-dose administration at 10 mg/kg, compounds were dissolved in a formulation containing 20% propylene glycol, 5% ethanol, 5% labrosol, and 70% PEG400, and administered by oral gavage. Two animals per time point were used. At specified time points after dosing (0.25, 0.5, 1, 2, 4, 6, and 24 h), animals were euthanized by CO2, and blood for plasma (by cardiac puncture) and brain samples were collected. The heparinized blood samples were centrifuged to obtain plasma. Brain samples were weighed, diluted five-fold with water, and then homogenized using a Precellys 24 tissue homogenizer. The brain and plasma samples were flash-frozen on dry ice and then stored at −80° C. until analysis.
Compounds were administered through tail vein injection. Two animals per time point were used. At specified time points after dosing (5 min, 0.25, 0.5, 1, 2, 4, and 6 h), animals were euthanized by CO2. Blood and brain samples were obtained and processed as described above for the oral dosing at 40 mg/kg.
as §1, with “by” for “and treated using”, “as” for “as calibration standards for”, “samples. […]” for “samples.”

[2] = Single-dose pharmacokinetics in FVB mice (oral gavage, IV); conditions: single oral dose, FVB mice, brain
[3] = tested on: PrP^Sc in dividing ScN2a-cl3 cells; format: cell-based, mouse; design: Dividing ELISA pEC50 (μM) 1st Expt. / Dividing ELISA pEC50 (μM) 2nd Expt. / Dividing ELISA pEC50 (μM) 3rd Expt. / Dividing ELISA pEC50 (μM) Mean: unit not given here
[4] = not given; remark: listed apart in the source
Binding in human plasma = conditions: 1 μM; mean ± SD, n = 3 (warfarin n = 2)
N2a-cl3 cells [5] = conditions: read-out: Dividing Calcein EC50 (μM) Mean (n = 3)
[6] = tested on: PrP^Sc in nondividing ScN2a-cl3 cells; format: cell-based, mouse; conditions: read-out: Non-Dividing ELISA EC50 (μM) Mean (n = 3); ScN2a-c13 non-dividing cells; mean n = 3
[7] = Hepatic microsomal stability, rat; conditions: […]
MDCK-MDR1 cells = test: Permeability in MDCK-MDR1 cells; conditions: MDR1-MDCK cell monolayers; for Permeability PA→B: apical to basal; for Permeability PB→A: basal to apical
[8] = […]
N2a-cl3 cells [9] = test: cells; conditions: Mus musculus, N2a-cl3, read-out: Dividing Calcein EC50 (μM) Mean (n = 3)
[10] = tested on: PrP^Sc in dividing ScN2a-c13 cells; conditions: read-out: EC50 (ELISA), reduction of PrP^Sc load; dividing ScN2a-c13 cells
[11] = Multiple-dose (three-day) pharmacokinetic studies in FVB mice, drug in liquid diet; format: in vivo, mouse; conditions: three days in liquid diet, higher doses (up to 210 mg/kg/day)
Experimental: Aminothiazole analog (e.g., 4.5 g of 27) was added to 15 mL of pure PEG400, vortexed and sonicated to ensure dissolution, then stored at −4° C. until needed. This highly concentrated PEG400 solution was subsequently diluted to final dosing concentrations, where the volume added was composed of homogenized solid rodent feed, cocoa (taste masking agent), and water. Wild-type FVB mice weigh ˜25 gm and typically drink 20 mL of liquid diet per day, allowing an estimate of daily drug consumption. A single dosing cohort consisted of three mice in a shared cage and liquid diet was provided at the start of the study in sufficient volume to last for the entire three-day trial (˜200 mL). At the end of the three-day dosing period, animals were euthanized by CO2, followed by collection of plasma (cardiac puncture) and removal of whole brain. Heparinized blood was centrifuged to separate plasma and both plasma and brain samples were stored at −80° C. prior to analysis. Plasma samples were prepared for analysis by precipitating proteins and reconstituting the remaining fraction with HPLC mobile phase. Brain samples were typically prepared by four-fold dilution with water after weighing, then homogenized using bead-beater or Polytron™ resulting in a highly concentrated solution that was further diluted with mobile phase as appropriate in preparation for bioanalytical analysis using LC-MS. Analysis was by LC-MS (Shimadzu dual-HPLC pumps, C18 analytical column, with detection using an Applied Biosystems API-4000 triple quadrupole mass spectrometer).
Ten compounds were selected from among the 34 2-AMTs for three-day multiple-dose PK studies at PO doses ranging from 40-210 mg/kg. Selection was based on diversity in potency, chemical structure, and a range of physicochemical properties. We used a liquid diet to facilitate easy drug administration, as well as serve as the daily source of all water and food. This approach was chosen because the mouse bioassay studies that would be used to assess drug effects on survival would be expected to run for 110 to 400 days, or more; gavage dosing for such a long period is not feasible and more stressful to mice. For the multiple-dose PK studies, 4.5 g of the 2-AMT analogs was added to 15 mL of pure PEG400, vortexed and sonicated to ensure dissolution, then stored at −4° C. until needed. This highly concentrated PEG400 solution was subsequently diluted to final dosing concentrations and added to the rodent liquid diet, cocoa (taste-masking agent), and water.
Wild-type FVB mice weigh ˜25 g and typically drink 20 mL of liquid diet per day, allowing an estimate of daily drug consumption. A single dosing cohort consisted of three mice in a shared cage and liquid diet was provided at the start of the study in sufficient volume (˜200 mL) to last for the entire three-day period. At the end of the dosing period, animals were euthanized by CO2, followed by collection of plasma (cardiac puncture) and removal of whole brain. Samples were processed and stored as described above for the 10 mg/kg single-dose studies.
Plasma and brain homogenate samples were extracted using a protein-precipitation method and analyzed by specific LC/MS/MS methods developed for each compound dosed in vivo. The analytical method accuracy and precision were monitored by analyzing quality control (QC) samples that were prepared by the same methods as the plasma or brain homogenate samples. The brain and plasma concentration data were used to calculate the maximal concentration (Cmax), area under the concentration-time curve (AUClast), and absolute bioavailability (% F) by noncompartmental analysis with sparse sampling performed using Phoenix WinNonlin 6.1 software (Pharsight, Mountain View, Calif.).

[12] = Table 29, 2-AMT analogs tested for potency, usually n = 3 or more
[13] = pH 1.2, simulated gastric fluid
[14] = ScN2a-cl3 dividing cells, 1st determination
[15] = ScN2a-cl3 dividing cells, 2nd determination
[16] = ScN2a-cl3 dividing cells, 3rd determination
[17] = ScN2a-cl3 dividing cells, mean of three determinations

For `Cc1ccnc(Nc2nc(-c3ccccc3O)cs2)c1` [IND48, 2-[2-(4-Methyl-pyridin-2-ylamino)-thiazol-4-yl]-phenol], the “AUC0->last, brain exposure” value [1] was “lowest AUClast values”, the “Brain exposure (AUClast) ranking” value [2] was “lowest AUClast values” and the EC50 ([3]; AMT analogs tested for potency) was greater than 10 µM. The EC50 [3, 12] was greater than 10 µM and the melting point was 249 to 250 °C.
For `Cc1ccnc(Nc2nc(-c3ccc(O)cc3)cs2)c1` [IND49, 4-[2-(4-Methyl-pyridin-2-ylamino)-thiazol-4-yl]-phenol], the “AUC0->last, brain exposure” value [1] was “lowest AUClast values”, the “Brain exposure (AUClast) ranking” value [2] was “lowest AUClast values” and the EC50 ([3]; AMT analogs tested for potency) was greater than 10 µM. The EC50 [3, 12] was greater than 10 µM.
For `Cc1cccc(Nc2nc(-c3ccc(-c4ccnc(N(C)C)c4)cc3)cs2)n1` [IND-0116095], the solubility (physchem; [13]) was greater than 150 µM, the solubility (physchem; pH 7.4, aqueous buffer) was 1.6 µM (≈ 0.62 µg/mL) and the “Analiza solubility (μM) pH 1.2” value [4] was greater than 150 μM.
For `Cc1cccc(Nc2nc(-c3ccc(-c4ccnc(OC(C)C)c4)cc3)cs2)n1` [IND-0116096], the solubility (physchem; [13]) was greater than 150 µM, the solubility (physchem; pH 7.4, aqueous buffer) was 3.1 µM (≈ 1.25 µg/mL) and the “Analiza solubility (μM) pH 1.2” value [4] was greater than 150 μM.
In the case of `COCCOc1cc(-c2ccc(-c3csc(Nc4cccc(C)n4)n3)cc2)ccn1` [IND-0116099], the solubility (physchem; [13]) is reported as 126 µM (≈ 52.5 µg/mL), the solubility (physchem; pH 7.4, aqueous buffer) is reported as less than 0.5 µM and the “Analiza solubility (μM) pH 7.4” value [4] is reported as less than 0.5 μM.
In the case of `Cc1cccc(Nc2nc(-c3ccc(-c4ccnc(OCC#N)c4)cc3)cs2)n1` [IND-0116138], the solubility (physchem; [13]) is reported as greater than 150 µM, the solubility (physchem; pH 7.4, aqueous buffer) is reported as less than 0.4 µM and the “Analiza solubility (μM) pH 1.2” value [4] is reported as greater than 150 μM. The “Analiza solubility (μM) pH 7.4” value [4] was less than 0.4 μM.
In the case of `CN(C)c1cccc(Nc2nc(-c3ccc(-c4ccccc4)cc3)cs2)n1` [IND-0116142], the solubility (physchem; [13]) is reported as 16.1 µM (≈ 6 µg/mL), the solubility (physchem; pH 7.4, aqueous buffer) is reported as less than 0.5 µM and the “Analiza solubility (μM) pH 7.4” value [4] is reported as less than 0.5 μM.
In the case of `CC(=O)CC(c1ccccc1)c1c(O)c2ccccc2oc1=O` (stereo not drawn) [Warfarin, warfarin, reference compound], the “Unbound (%), Human Plasma” value (Binding in human plasma) is reported as 0.68 ± 0.0023%.
With `Cc1ccc(Nc2nc(-c3ccncc3)cs2)nc1` [compound 23] the EC50 (N2a-cl3 cells [5]) was greater than 32 µM, the EC50 [6] was greater than 32 µM and the “Microsome stability T1/2” value [7] was 0.333 h. The “Permeability PA→B” value (MDCK-MDR1 cells) was 32.6 10^−6 cm/sec, the “Permeability PB→A” value (MDCK-MDR1 cells) was 42.3 10^−6 cm/sec and the EC50 ([3]; ScN2a-cl3 cells, read-out: Antiprion activity ScN2a-cl3 EC50) was 1.57 µM. The “Dividing ELISA pEC50 (μM) 1st Expt.” value [3, 14] was 5.95, the EC50 ([3]; ScN2a-cl3 dividing cells, 1st determination, read-out: Dividing ELISA EC50 (μM) 1st Expt.) was 1.12 µM and the “Dividing ELISA pEC50 (μM) 2nd Expt.” value [3, 15] was 5.76. For the same molecule, the EC50 ([3]; ScN2a-cl3 dividing cells, 2nd determination, read-out: Dividing ELISA EC50 (μM) 2nd Expt.) was 1.75 µM, the “Dividing ELISA pEC50 (μM) 3rd Expt.” value [3, 16] was 5.73 and the EC50 ([3]; ScN2a-cl3 dividing cells, 3rd determination, read-out: Dividing ELISA EC50 (μM) 3rd Expt.) was 1.85 µM. The “Dividing ELISA pEC50 (μM) Mean” value [3, 17] was 5.81 and the EC50 ([3]; ScN2a-cl3 dividing cells, mean of three determinations, read-out: Dividing ELISA EC50 (μM) Mean) was 1.57 µM.
With `Cc1ccc(Nc2nc(-c3cc(-c4ccccc4)no3)cs2)nc1` [compound 27, (5-Methylpyridin-2-yl)-[4-(3-phenylisoxazol-5-yl)-thiazol-2-yl]-amine] the “metabolic stability (in words)” value [8] was “excellent stability”, the EC50 [6] was greater than 32 µM and the EC50 (N2a-cl3 cells [9]) was greater than 32 µM. The “Microsome stability T1/2” value [7] was 2.52 h, the “Permeability PA→B” value (MDCK-MDR1 cells) was 6.8 10^−6 cm/sec and the “Permeability PB→A” value (MDCK-MDR1 cells) was 8.3 10^−6 cm/sec. The EC50 [10] was 940 nM, the “Dividing ELISA pEC50 (μM) 1st Expt.” value [3, 14] was 5.96 and the “Dividing ELISA pEC50 (μM) 2nd Expt.” value [3, 15] was 6.13. For the same molecule, the “Dividing ELISA pEC50 (μM) 3rd Expt.” value [3, 16] was 6.00, the “Dividing ELISA pEC50 (μM) Mean” value [3, 17] was 6.03 and the EC50 ([3]; read-out: Antiprion activity ScN2a-cl3 EC50, ScN2a-cl3 cells) was 0.94 µM. The EC50 ([3]; read-out: Dividing ELISA EC50 (μM) 1st Expt., ScN2a-cl3 dividing cells, 1st determination) was 1.09 µM, the EC50 ([3]; read-out: Dividing ELISA EC50 (μM) 2nd Expt., ScN2a-cl3 dividing cells, 2nd determination) was 0.747 µM and the EC50 ([3]; read-out: Dividing ELISA EC50 (μM) 3rd Expt., ScN2a-cl3 dividing cells, 3rd determination) was 0.994 µM. For the same molecule, the EC50 ([3]; read-out: Dividing ELISA EC50 (μM) Mean, ScN2a-cl3 dividing cells, mean of three determinations) was 0.945 µM and the “mean brain concentration in excess of EC50” value [11] was no more than 25 fold.
